Key:
[1] = tested on: Planaria (Dugesia japonica); assay: Planaria tissue regeneration after surgical injury (head resection), tissue regeneration index; format: in vivo; conditions: surgically injured planaria vs vehicle
Protocol: (§1) Planaria regeneration: Planaria (Dugesia japonica; Dj) were kept in water (Poland Spring) at 18° C. All animals were starved for at least 7 days prior to experiments. Tissue regeneration was assessed as in (12). Briefly, planaria were subject to head resection post-occularly (surgical Injury). The posterior portions of the planaria were then placed in spring water containing 0.01% EtOH, SPE-C isolate fraction 2 from resolving exudates or milk at the indicated dilutions, U0126 (Extracellular signal-regulated kinases (ERK) inhibitor; Cell Signaling Technology; 25 μM (16)), U0126 plus resolving exudates SPE-C isolates fraction 2, SCI (100 nM), SCII (100 nM), lipoxygenase inhibitor (baicalein, 10 μM) or lipoxygenase inhibitor plus SCI and SCII (100 nM). The extent of tissue regeneration during a 6-day period for D. japonica was determined using captured images of the regenerating blastemas at regular intervals (24 h). These images were analyzed using ImageJ software. A tissue regeneration index (TRI) was employed that took into consideration the size of the regenerated tissue total area (A) and the post-ocular width W of the animal, where TRI=A/W. In determined experiments, planaria were injured and incubated in water, containing 10^8CFU E. coli (serotype O6:K2:H1) or with E. coli plus SCI and SCII (100 nM), and tissue regeneration indices assessed as described above.
Planaria regeneration: Planaria (Dugesia japonica) were kept in water (Poland. Spring; Nestlé Waters North America, Stamford, Conn., USA) at 18° C. All animals were starved for at least 7 d before the experiments. Tissue regeneration was assessed as described previously (10). In brief, planaria were subjected to head resection postoccularly (surgical injury). The posterior portions of the planaria were then placed in spring water containing 0.01% EtOH, 16-glutathionyl, 17-hydroxyl-4Z,7Z,10,12,14,19Z-docosahexaenoic acid plus 16-cysteinylglycinyl, 7-hydroxyl-4Z,7Z,10,12,14,19Z-docosahexaenoic acid (50 nM; each) or 8-gutathionyl, 7,17-dihydroxyl-4Z9,11,13Z,15E,19Z-docosahexaenoic acid plus 8-cysteinylglycinyl, 7,17-dihydroxyl-4Z,9,11,13Z,15E,19Z-docosahexaenoic acid (50 nM, each). The extent of tissue regeneration during a 6-d period was determined using captured images of the regenerating blastemas at regular intervals (24 h). These images were analyzed using ImageJ software (NIH, Bethesda, Md., USA). A tissue regeneration index (TRI) was used that took into consideration the size of the regenerated tissue total area (A) and the postocular width (W), where TRI=A/W (10).

LOX = assay: SC levels in regenerating planaria with lipoxygenase inhibitor (LC-MS-MS); format: in vivo, Dugesia japonica; conditions: measured 3 days post-surgery
Protocol: as §1, with “The posterior portions of the planaria were then placed in spring water containing 0.01% EtOH, SPE-C isolate fraction 2 from resolving exudates or milk at the indicated dilutions, U0126 (Extracellular signal-regulated kinases (ERK) inhibitor; Cell Signaling Technology; 25 μM (16)), U0126 plus resolving exudates SPE-C isolates fraction 2, SCI (100 nM), SCII (100 nM), lipoxygenase inhibitor (baicalein, 10 μM) or lipoxygenase inhibitor plus SCI and SCII (100 nM).” left out
Lipid mediator metabololipidomics and isolation of bioactive fractions: Peritoneal exudates and exudate cell incubations were immediately placed in 2 volumes of methanol. For lipid mediator profiling, 500 pg each of deuterium-labeled internal standards: d8-5S-HETE, d4-LTB4, d5-LXA4, d4-PGE2, and d5-LTC4 were added to facilitate quantification in each respective chromatographic region and sample recovery. […]

[2] = tested on: Mice (zymosan peritonitis); assay: Zymosan peritonitis in mice: leukocyte counts and exudate eicosanoids; format: in vivo, mouse; conditions: i.p. prior to 1 mg zymosan; 4 h; MaR1 10 ng
Protocol: In determined experiments, mice were administered SC isolates from regenerating planaria i.p., obtained as described in the lipid mediator metabololipidomics and isolation of bioactive fractions section below, immediately prior to zymosan administration (i.p. 1 mg/mouse). After 4 h, peritoneal exudates were obtained, leukocytes enumerated as detailed above and eicosanoid levels assessed by lipid mediator metabololipidomics as described below.

SMILES | tissue regeneration / head regrowth (in words) [1] | levels of both SCI and SCII (LOX) | exudate eicosanoid levels including LTB4 and thromboxane (Tx) B2 [2] | neutrophil recruitment in murine peritonitis [2]
O=c1cc(-c2ccccc2)oc2cc(O)c(O)c(O)c12 [baicalein, reference compound] | significantly delayed head regrowth | reduced |  | 
CC/C=C\C/C=C\C[C@H](O)\C=C/C=C/C=C/[C@H](O)C/C=C\CCC(=O)O [MaR1, 7R,14S-dihydroxy-docosa-4Z,8E,10E,12Z,16Z,19Z-hexaenoic acid] | accelerated this process to essentially the same extent |  | shared | shared

Source: US11135228B2, “Cysteinyl-proresolving mediators that promote resolution of infection and organ protection” (THE BRIGHAM AND WOMEN'S HOSPITAL, priority 2014, dated 2021)
